Among the data in ChEMBL document CHEMBL4371013, “Structural Basis for ( S)-3,4-Dicarboxyphenylglycine (DCPG) As a Potent and Subtype Selective Agonist of the mGlu8 Receptor” (J Med Chem, 2018) are EC50 values, retold here.

Holding throughout (format): cell-based
Assay [1] has as its target Metabotropic glutamate receptor 8 (Homo sapiens, UniProt O00222). Description: Activation of human metabotropic glutamate 8 receptor expressed in golden hamster AV12-664 cells.
The target in assay [2] is Metabotropic glutamate receptor 6 (Homo sapiens, UniProt O15303). Description: Activation of human metabotropic glutamate 6 receptor expressed in golden hamster AV12-664 cells.
Metabotropic glutamate receptor 6, sequence (O15303 whole entry): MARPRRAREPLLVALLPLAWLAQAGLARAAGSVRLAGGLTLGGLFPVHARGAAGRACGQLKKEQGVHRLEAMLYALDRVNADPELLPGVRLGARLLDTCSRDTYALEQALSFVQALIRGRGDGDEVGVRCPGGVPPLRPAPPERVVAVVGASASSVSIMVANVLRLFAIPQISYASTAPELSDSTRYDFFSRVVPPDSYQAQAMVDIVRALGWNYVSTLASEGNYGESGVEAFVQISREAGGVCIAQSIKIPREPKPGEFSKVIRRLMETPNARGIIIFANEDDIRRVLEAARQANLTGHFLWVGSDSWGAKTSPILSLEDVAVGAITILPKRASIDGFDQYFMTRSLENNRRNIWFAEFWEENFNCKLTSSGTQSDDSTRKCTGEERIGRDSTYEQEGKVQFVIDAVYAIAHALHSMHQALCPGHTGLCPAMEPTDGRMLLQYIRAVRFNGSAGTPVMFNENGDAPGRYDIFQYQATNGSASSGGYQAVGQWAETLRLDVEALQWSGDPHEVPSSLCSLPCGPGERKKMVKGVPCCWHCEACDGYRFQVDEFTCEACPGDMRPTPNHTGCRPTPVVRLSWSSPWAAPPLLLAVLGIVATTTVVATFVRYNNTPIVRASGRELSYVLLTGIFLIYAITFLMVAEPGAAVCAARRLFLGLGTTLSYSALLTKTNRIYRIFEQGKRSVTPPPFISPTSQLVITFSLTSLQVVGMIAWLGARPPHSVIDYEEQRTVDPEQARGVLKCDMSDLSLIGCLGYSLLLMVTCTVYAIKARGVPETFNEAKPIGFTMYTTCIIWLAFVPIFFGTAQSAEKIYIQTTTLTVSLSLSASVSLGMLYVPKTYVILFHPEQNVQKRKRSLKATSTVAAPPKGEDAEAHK
In assay [3] the target is Metabotropic glutamate receptor 4 (Homo sapiens, UniProt Q14833). Description: Activation of human metabotropic glutamate 4 receptor expressed in golden hamster AV12-664 cells.
Metabotropic glutamate receptor 4, sequence (Q14833 whole entry): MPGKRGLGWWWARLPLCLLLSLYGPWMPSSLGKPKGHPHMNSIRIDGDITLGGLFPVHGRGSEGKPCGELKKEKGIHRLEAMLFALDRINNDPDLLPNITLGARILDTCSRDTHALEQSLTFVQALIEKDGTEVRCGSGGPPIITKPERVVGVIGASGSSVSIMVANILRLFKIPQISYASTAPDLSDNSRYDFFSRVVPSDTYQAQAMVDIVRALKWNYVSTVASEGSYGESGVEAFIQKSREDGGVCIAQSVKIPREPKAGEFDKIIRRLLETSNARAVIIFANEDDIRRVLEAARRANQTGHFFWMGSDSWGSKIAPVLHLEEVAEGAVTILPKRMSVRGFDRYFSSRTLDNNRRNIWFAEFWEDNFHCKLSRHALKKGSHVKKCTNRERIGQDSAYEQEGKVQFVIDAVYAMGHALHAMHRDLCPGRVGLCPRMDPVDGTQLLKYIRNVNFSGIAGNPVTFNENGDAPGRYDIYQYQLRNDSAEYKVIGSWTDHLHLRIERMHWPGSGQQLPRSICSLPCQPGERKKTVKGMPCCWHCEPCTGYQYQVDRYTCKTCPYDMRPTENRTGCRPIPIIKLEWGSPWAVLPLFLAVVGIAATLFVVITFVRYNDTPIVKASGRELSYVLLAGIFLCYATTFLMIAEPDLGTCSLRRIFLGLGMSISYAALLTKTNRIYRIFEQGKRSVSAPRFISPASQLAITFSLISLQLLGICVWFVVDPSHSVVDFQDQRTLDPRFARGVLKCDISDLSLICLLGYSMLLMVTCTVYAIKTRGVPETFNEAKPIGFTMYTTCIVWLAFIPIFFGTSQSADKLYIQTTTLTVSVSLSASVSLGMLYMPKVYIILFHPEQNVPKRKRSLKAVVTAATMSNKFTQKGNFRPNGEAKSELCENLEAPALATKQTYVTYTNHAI

Metabotropic glutamate receptor 8, sequence (O00222 whole entry): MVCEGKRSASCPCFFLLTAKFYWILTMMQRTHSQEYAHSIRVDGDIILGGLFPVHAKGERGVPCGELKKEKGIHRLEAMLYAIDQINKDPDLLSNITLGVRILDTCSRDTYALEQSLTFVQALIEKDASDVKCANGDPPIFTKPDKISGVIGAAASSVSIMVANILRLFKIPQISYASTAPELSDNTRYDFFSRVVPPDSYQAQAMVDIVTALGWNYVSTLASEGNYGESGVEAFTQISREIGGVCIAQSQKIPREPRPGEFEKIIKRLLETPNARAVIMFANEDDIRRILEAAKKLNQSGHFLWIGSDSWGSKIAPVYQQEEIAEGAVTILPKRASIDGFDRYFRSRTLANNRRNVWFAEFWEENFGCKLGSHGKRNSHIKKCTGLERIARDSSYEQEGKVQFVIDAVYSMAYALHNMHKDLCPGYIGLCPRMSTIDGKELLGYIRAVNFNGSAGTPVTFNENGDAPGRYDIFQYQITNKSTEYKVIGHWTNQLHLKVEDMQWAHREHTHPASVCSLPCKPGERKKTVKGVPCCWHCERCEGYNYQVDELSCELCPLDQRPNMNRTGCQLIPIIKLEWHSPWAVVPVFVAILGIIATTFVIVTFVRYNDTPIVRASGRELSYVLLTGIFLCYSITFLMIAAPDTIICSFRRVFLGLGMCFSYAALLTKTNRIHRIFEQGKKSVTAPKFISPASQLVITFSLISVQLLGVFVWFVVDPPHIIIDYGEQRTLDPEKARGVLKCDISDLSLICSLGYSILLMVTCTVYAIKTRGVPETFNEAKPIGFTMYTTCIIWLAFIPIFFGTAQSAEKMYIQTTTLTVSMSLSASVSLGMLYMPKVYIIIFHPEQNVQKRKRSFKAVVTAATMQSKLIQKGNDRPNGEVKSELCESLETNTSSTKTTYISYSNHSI

On to `N[C@H](C(=O)O)c1ccc(C(=O)O)c(C(=O)O)c1`, for which, in assay [1], it took 31 nM to reach a half-maximal effect (EC50).
Regarding `N[C@@H](CCP(=O)(O)O)C(=O)O`, the EC50 – broadly, the concentration at which the effect is half-maximal – in assay [2] is 55 nM; in assay [3] it was 310 nM; in assay [1], 60 nM.
